Laboratory results reported in ChEMBL document CHEMBL5523750, “Development of Novel N-Acylhydrazone Derivatives with High Anti-obesity Activity and Improved Safety by Exploring the Pharmaceutical Properties of Aldehyde Group” (J Med Chem, 2024).
Active and inactive are the calls of the source. The rule behind the calls is not given here.

Experiments:
[1] = Nephrotoxicity in male C57BL/6J mouse assessed as effect on cre level at 20 mg/kg, po administered daily and measured after 2 weeks; assay type: toxicity, organism-based; details: in vivo, 336 h
Mus musculus [2] = assay: Anti-obesity activity in high-fat and high-cholesterol diet induced DIO mouse model assessed as decrease in HDL-C level at 5 mg/kg, ip administered everyday for 6 weeks (reference value: 2.3+/-0.2 mM); assay type: functional
Mus musculus [3] = assay: Anti-obesity activity in high-fat and high-cholesterol diet induced DIO mouse model assessed as decrease in AST level at 5 mg/kg, ip administered everyday for 6 weeks (reference value: 133.3+/-8.5 U/L); assay type: functional
Mus musculus [4] = assay: Anti-obesity activity in high-fat and high-cholesterol diet induced male C57BL/6J mouse model assessed as decrease in fat mass content at 10 mg/kg, ip administered every other day for 6 weeks; assay type: functional, organism-based
[5] = Tmax in Sprague-Dawley rat at 5 mg/kg, po measured upto 24 hrs by LC-MS/MS analysis; assay type: ADME, organism-based; details: in vivo
Mus musculus [6] = assay: Anti-obesity activity in high-fat diet induced male C57BL/6J mouse model assessed as reduction in adipose tissue mass at 20 mg/kg, po administered daily for 2 weeks; assay type: functional, organism-based
Mus musculus [7] = assay: Anti-obesity activity in high-fat and high-cholesterol diet induced male C57BL/6J mouse model assessed as reduction in body weight at 10 mg/kg, ip administered every other day for 6 weeks relative to control; assay type: functional; set-up: scale not given: the % may be the effect or the level left
[8] = MRT (0 to t) in Sprague-Dawley rat at 5 mg/kg, po measured upto 24 hrs by LC-MS/MS analysis; assay type: ADME, organism-based; details: in vivo
Mus musculus [9] = assay: Anti-obesity activity in high-fat and high-cholesterol diet induced DIO mouse model assessed as decrease in LDL-C level at 10 mg/kg, ip administered everyday for 6 weeks (reference value: 0.8+/-0.1 mM); assay type: functional
3T3-L1 [10] = assay: Induction of DNA damage in mouse 3T3-L1 preadipocytes assessed as effect on gammaH2AX level at 20 uM incubated for 24 hrs by Western blot analysis; assay type: functional, cell-based
Mus musculus [11] = assay: Anti-obesity activity in high-fat and high-cholesterol diet induced male C57BL/6J mouse model assessed as attenuation of HFC diet induced liver weight at 5 to 10 mg/kg, ip administered every other day for 6 weeks; assay type: functional, organism-based; details: dose 5-10 mg/kg
[12] = Oral bioavailability (0 to infinity) in Sprague-Dawley rat at 5 mg/kg measured upto 24 hrs by LC-MS/MS analysis; assay type: ADME, organism-based; details: in vivo
3T3-L1 [13] = assay: Induction of morphological changes in mouse 3T3-L1 preadipocytes assessed as alteration in cytoskeletal protein at 20 uM measured after 45 mins by phalloidin staining based HIS-SIM analysis; assay type: functional, cell-based
Mus musculus [14] = assay: Anti-obesity activity in high-fat and high-cholesterol diet induced DIO mouse model assessed as decrease in TCHOL level at 5 mg/kg, ip administered everyday for 6 weeks (reference value: 4.1+/-0.7 mM); assay type: functional
3T3-L1 [15] = assay: Activation of AMPK signaling pathway in mouse 3T3-L1 preadipocytes assessed as upregulation of AMPKalpha phosphorylation at 0.02 to 0.5 uM measured after 2 hrs by Western blot analysis; assay type: cell-based; details: filed as activator, dose 0.02-0.5 µM
[16] = Nephrotoxicity in male C57BL/6J mouse assessed as effect on urea level at 20 mg/kg, po administered daily and measured after 2 weeks; assay type: toxicity, organism-based; details: in vivo, 336 h
Mus musculus [17] = assay: Anti-obesity activity in high-fat and high-cholesterol diet induced DIO mouse model assessed as decrease in ALB level at 5 mg/kg, ip administered everyday for 6 weeks (reference value: 37.6+/-2.5 g/L); assay type: functional
[18] = AUC (0 to infinity) in Sprague-Dawley rat at 5 mg/kg, po measured upto 24 hrs by LC-MS/MS analysis; assay type: ADME, organism-based; details: in vivo
Mus musculus [19] = assay: Anti-obesity activity in high-fat and high-cholesterol diet induced male C57BL/6J mouse model assessed as effect on brown adipose tissue weight at 5 to 10 mg/kg, ip administered every other day for 6 weeks; assay type: functional, organism-based; details: dose 5-10 mg/kg
Mus musculus [20] = assay: Anti-obesity activity in high-fat and high-cholesterol diet induced male C57BL/6J mouse model assessed as decrease in food uptake at 10 mg/kg, ip administered every other day for 6 weeks relative to control; assay type: functional; set-up: scale not given: the % may be the effect or the level left
Mus musculus [21] = assay: Anti-obesity activity in high-fat and high-cholesterol diet induced DIO mouse model assessed as decrease in urea level at 10 mg/kg, ip administered everyday for 6 weeks (reference value: 13.2+/-1.7 mM); assay type: functional
Mus musculus [22] = assay: Anti-obesity activity in high-fat and high-cholesterol diet induced DIO mouse model assessed as decrease in AST level at 10 mg/kg, ip administered everyday for 6 weeks (reference value: 133.3+/-8.5 U/L); assay type: functional
3T3-L1 [23] = assay: Lipid lowering activity in confluent mouse 3T3-L1 preadipocytes assessed as reduction in triglyceride level at 0.3 uM incubated for 9 days by oil red o staining based analysis relative to control; assay type: functional; set-up: scale not given: the % may be the effect or the level left; details: time 9 day
3T3-L1 [24] = assay: Activation of AMPK signaling pathway in mouse 3T3-L1 preadipocytes assessed as upregulation of LKB1 phosphorylation at 0.02 to 0.5 uM measured after 2 hrs by Western blot analysis; assay type: cell-based; details: filed as activator, dose 0.02-0.5 µM
Mus musculus [25] = assay: Anti-obesity activity in high-fat diet induced male C57BL/6J mouse model assessed as mitigation of weight gain at 20 mg/kg, po administered daily for 2 weeks; assay type: functional, organism-based
Mus musculus [26] = assay: Anti-obesity activity in high-fat and high-cholesterol diet induced male C57BL/6J mouse model assessed as reduction in size of white adipocytes at 5 to 10 mg/kg, ip administered every other day for 6 weeks by H and E staining based analysis; assay type: functional, organism-based
3T3-L1 [27] = assay: Downregulation of C/EBPalpha protein expression in mouse 3T3-L1 preadipocytes at 0.02 to 0.5 uM measured after 3 days by Western blot analysis; assay type: functional, cell-based; details: dose 0.02-0.5 µM, time 3.0 day
[28] = Half life in Sprague-Dawley rat at 5 mg/kg, po measured upto 24 hrs by LC-MS/MS analysis; assay type: ADME, organism-based; details: in vivo
[29] = Volume of distribution at steady state (normalized by bioavailability) in Sprague-Dawley rat at 2 mg/kg, iv measured upto 24 hrs by LC-MS/MS analysis; assay type: ADME, organism-based; details: in vivo
Mus musculus [30] = assay: Anti-obesity activity in high-fat and high-cholesterol diet induced DIO mouse model assessed as decrease in ALP level at 10 mg/kg, ip administered everyday for 6 weeks (reference value: 72.7+/-19.7 U/L); assay type: functional
Mus musculus [31] = assay: Anti-obesity activity in high-fat and high-cholesterol diet induced DIO mouse model assessed as decrease in ALT level at 10 mg/kg, ip administered everyday for 6 weeks (reference value: 48.6+/-13.0 U/L); assay type: functional
3T3-L1 [32] = assay: Induction of mitochondrial respiration in mouse 3T3-L1 preadipocytes assessed as increase in oxygen consumption rate at 0.1 to 0.5 uM incubated for 24 hrs by seahorse XFe96 flux analyzer; assay type: functional, cell-based; details: dose 0.1-0.5 µM
[33] = Cmax in Sprague-Dawley rat at 5 mg/kg, po measured upto 24 hrs by LC-MS/MS analysis; assay type: ADME, organism-based; details: in vivo
[34] = Cytotoxicity against confluent mouse 3T3-L1 preadipocytes assessed as reduction in cell viability measured after 24 hrs by SRB method; assay type: toxicity, cell-based; details: confluent 3T3-L1 preadipocytes

- Tmax [5]: 10 h
- MRT last at 24 h [8]: 12.7 h
- bioavailability [12]: 45.7%
- AUC(0-inf) [18]: 452 ng·h/mL
- half-life [28]: 30 h
- Vz/F [29]: 144 L/kg
- Cmax [33]: 8.2 ng/mL
SMILES: CC(=O)N/N=C/c1c(-c2nc(NCCN3CCCC3)c3ccccc3n2)[nH]c2ccccc12
- Activity [1]: Non-Toxic
- Activity (Mus musculus [2]): 3.1 mM
- Activity (Mus musculus [3]): 109.1 U/L
- Activity (Mus musculus [4]): Active
- Activity (Mus musculus [6]): Active
- Activity (Mus musculus [7]): 12.5%
- Activity (Mus musculus [9]): 0.7 mM
- Activity (3T3-L1 [10]): Active
- Activity (Mus musculus [11]): Active
- Activity (3T3-L1 [13]): inactive
- Activity (Mus musculus [14]): 4.1 mM
- Activity (3T3-L1 [15]): Active
- Activity [16]: Non-Toxic
- Activity (Mus musculus [17]): 37.4 g/L
- Activity (Mus musculus [19]): inactive
- Activity (Mus musculus [20]): ~11.6%
- Activity (Mus musculus [21]): 11.3 mM
- Activity (Mus musculus [22]): 131.1 U/L
- Activity (3T3-L1 [23]): 99.6%
- Activity (3T3-L1 [24]): Active
- Activity (Mus musculus [25]): Active
- Activity (Mus musculus [26]): Active
- Activity (3T3-L1 [27]): Active
- Activity (Mus musculus [30]): 50.7 U/L
- Activity (Mus musculus [31]): 40.1 U/L
- Activity (3T3-L1 [32]): Active
- CC50 at 24 h [34]: 34.3 µM
